{"source": "paper PMC9851200", "about": "“Multiparameter phenotypic screening for endogenous TFEB and TFE3 translocation identifies novel chemical series modulating lysosome function” (Autophagy, 2022)", "test_in_all_cases": "biochemical", "assay_type_in_all_cases": "binding", "key": {"[1]": {"molecular_target": "T1, cellular kinases of SH-SY5Y cells (Homo sapiens, UniProt O75385)", "T1 construct": "endogenous in cells; host or cells: SH-SY5Y", "conditions": "2µM; SH-SY5Y cells; Labeling Site Lys2; DLKPQNILLSNPAGR; read-out: KiNativ in-cell binding, % Inhibition, ULK1", "excerpt": "(§1) As KINOMEscan is an in vitro assay, and as different cell types have variable kinase expression profiles we sought to determine the kinase binding profile in our SH-SY5Y TFEB-relocalization cell model. […] Bound kinases were pulled down and analyzed by mass spectrometry to determine the in situ kinase binding profile for each compound."}, "[2]": {"molecular_target": "T2, cellular kinases of SH-SY5Y cells (Homo sapiens, UniProt O95835)", "T2 construct": "endogenous in cells; host or cells: SH-SY5Y", "conditions": "2µM, SH-SY5Y cells, read-out: KiNativ in-cell binding, % Inhibition, LATS1", "excerpt": "as §1"}, "[3]": {"molecular_target": "cellular kinases of SH-SY5Y cells (Homo sapiens, UniProt P09769)", "conditions": "2µM; SH-SY5Y cells; Labeling Site Activation Loop; LIKDDEYNPCQGSKFPIK; read-out: KiNativ in-cell binding, % Inhibition, FGR", "excerpt": "as §1"}, "[4]": {"molecular_target": "cellular kinases of SH-SY5Y cells (Homo sapiens, UniProt P15056)", "conditions": "2µM; SH-SY5Y cells; labeling site Lys2; peptide DLKSNNIFLHEDLTVK", "excerpt": "as §1"}, "[5]": {"molecular_target": "T3, cellular kinases of SH-SY5Y cells (Homo sapiens, UniProt P23458)", "T3 construct": "endogenous in cells; host or cells: SH-SY5Y", "conditions": "2µM, SH-SY5Y cells", "excerpt": "as §1"}, "[6]": {"molecular_target": "cellular kinases of SH-SY5Y cells (Homo sapiens, UniProt P31749)", "sequence (P31749 whole entry)": "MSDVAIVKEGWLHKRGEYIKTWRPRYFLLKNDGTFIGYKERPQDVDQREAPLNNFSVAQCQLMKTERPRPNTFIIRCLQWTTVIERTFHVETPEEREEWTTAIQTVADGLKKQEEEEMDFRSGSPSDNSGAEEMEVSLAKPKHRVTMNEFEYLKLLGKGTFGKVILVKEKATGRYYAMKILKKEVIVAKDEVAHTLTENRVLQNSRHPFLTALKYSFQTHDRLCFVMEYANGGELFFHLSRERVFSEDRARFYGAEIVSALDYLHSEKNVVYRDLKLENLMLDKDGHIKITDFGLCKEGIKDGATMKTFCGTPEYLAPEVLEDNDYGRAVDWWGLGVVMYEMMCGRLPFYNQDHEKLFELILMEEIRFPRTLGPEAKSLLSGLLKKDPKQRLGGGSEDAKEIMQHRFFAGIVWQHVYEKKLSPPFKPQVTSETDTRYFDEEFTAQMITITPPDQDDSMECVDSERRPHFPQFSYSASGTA", "conditions": "2µM; SH-SY5Y cells; Labeling Site ATP Loop; GTFGKVILVK; read-out: KiNativ in-cell binding, % Inhibition, AKT1", "excerpt": "as §1"}, "[7]": {"molecular_target": "T4, cellular kinases of SH-SY5Y cells (Homo sapiens, UniProt Q14164)", "T4 construct": "endogenous in cells; host or cells: SH-SY5Y", "conditions": "2µM; SH-SY5Y cells; Labeling Site Lys1; SGELVAVKVFNTTSYLRPR; read-out: KiNativ in-cell binding, % Inhibition, IKBKE/IKKe", "excerpt": "as §1"}, "[8]": {"molecular_target": "T5, cellular kinases of SH-SY5Y cells (Homo sapiens, UniProt Q16644)", "T5 construct": "endogenous in cells; host or cells: SH-SY5Y", "conditions": "2µM; SH-SY5Y cells; Labeling Site ATP Loop; QVLGLGVNGKVLECFHR; read-out: KiNativ in-cell binding, % Inhibition, MAPKAPK3", "excerpt": "as §1"}, "[9]": {"molecular_target": "cellular kinases of SH-SY5Y cells (Homo sapiens, UniProt Q7KZI7)", "conditions": "2µM; SH-SY5Y cells; Labeling Site Lys1; EVAVKIIDKTQLNSSSLQK; read-out: KiNativ in-cell binding, % Inhibition, MARK2", "excerpt": "as §1"}, "[10]": {"molecular_target": "T6, cellular kinases of SH-SY5Y cells (Homo sapiens, UniProt Q7RTN6)", "T6 construct": "endogenous in cells; host or cells: SH-SY5Y", "conditions": "2µM; SH-SY5Y cells; Labeling Site Activation Loop; YSVKVLPWLSPEVLQQNLQGYDAK; read-out: KiNativ in-cell binding, % Inhibition, STRADA", "excerpt": "as §1"}, "[11]": {"molecular_target": "T7, cellular kinases of SH-SY5Y cells (Homo sapiens, UniProt Q8IVH8)", "T7 construct": "endogenous in cells; host or cells: SH-SY5Y", "conditions": "2µM, SH-SY5Y cells, read-out: KiNativ in-cell binding, % Inhibition, MAP4K3", "excerpt": "as §1"}, "[12]": {"molecular_target": "T8, cellular kinases of SH-SY5Y cells (Homo sapiens, UniProt Q8NB16)", "T8 construct": "endogenous in cells; host or cells: SH-SY5Y", "conditions": "2µM; SH-SY5Y cells; labeling site Lys1; peptide APVAIKVFK", "excerpt": "as §1"}, "[13]": {"molecular_target": "cellular kinases of SH-SY5Y cells (Homo sapiens, UniProt Q8TDX7)", "sequence (Q8TDX7 whole entry)": "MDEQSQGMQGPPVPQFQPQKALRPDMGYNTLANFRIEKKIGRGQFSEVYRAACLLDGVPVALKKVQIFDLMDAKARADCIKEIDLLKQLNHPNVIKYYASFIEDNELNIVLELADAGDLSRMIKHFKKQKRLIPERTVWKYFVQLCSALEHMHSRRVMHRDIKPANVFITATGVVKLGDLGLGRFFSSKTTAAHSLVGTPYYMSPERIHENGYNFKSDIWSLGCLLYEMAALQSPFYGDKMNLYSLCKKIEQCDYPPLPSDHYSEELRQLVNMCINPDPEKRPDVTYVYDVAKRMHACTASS", "conditions": "2µM; SH-SY5Y cells; labeling site Lys1; peptide AACLLDGVPVALKK", "excerpt": "as §1"}, "[14]": {"molecular_target": "T9, cellular kinases of SH-SY5Y cells (Homo sapiens, UniProt Q96PY6)", "T9 construct": "endogenous in cells; host or cells: SH-SY5Y", "conditions": "2µM; SH-SY5Y cells; Labeling Site Lys2; DIKSQNIFLTK; read-out: KiNativ in-cell binding, % Inhibition, NEK1", "excerpt": "as §1"}, "[15]": {"molecular_target": "cellular kinases of SH-SY5Y cells (Homo sapiens, UniProt Q96Q15)", "sequence (Q96Q15 whole entry)": "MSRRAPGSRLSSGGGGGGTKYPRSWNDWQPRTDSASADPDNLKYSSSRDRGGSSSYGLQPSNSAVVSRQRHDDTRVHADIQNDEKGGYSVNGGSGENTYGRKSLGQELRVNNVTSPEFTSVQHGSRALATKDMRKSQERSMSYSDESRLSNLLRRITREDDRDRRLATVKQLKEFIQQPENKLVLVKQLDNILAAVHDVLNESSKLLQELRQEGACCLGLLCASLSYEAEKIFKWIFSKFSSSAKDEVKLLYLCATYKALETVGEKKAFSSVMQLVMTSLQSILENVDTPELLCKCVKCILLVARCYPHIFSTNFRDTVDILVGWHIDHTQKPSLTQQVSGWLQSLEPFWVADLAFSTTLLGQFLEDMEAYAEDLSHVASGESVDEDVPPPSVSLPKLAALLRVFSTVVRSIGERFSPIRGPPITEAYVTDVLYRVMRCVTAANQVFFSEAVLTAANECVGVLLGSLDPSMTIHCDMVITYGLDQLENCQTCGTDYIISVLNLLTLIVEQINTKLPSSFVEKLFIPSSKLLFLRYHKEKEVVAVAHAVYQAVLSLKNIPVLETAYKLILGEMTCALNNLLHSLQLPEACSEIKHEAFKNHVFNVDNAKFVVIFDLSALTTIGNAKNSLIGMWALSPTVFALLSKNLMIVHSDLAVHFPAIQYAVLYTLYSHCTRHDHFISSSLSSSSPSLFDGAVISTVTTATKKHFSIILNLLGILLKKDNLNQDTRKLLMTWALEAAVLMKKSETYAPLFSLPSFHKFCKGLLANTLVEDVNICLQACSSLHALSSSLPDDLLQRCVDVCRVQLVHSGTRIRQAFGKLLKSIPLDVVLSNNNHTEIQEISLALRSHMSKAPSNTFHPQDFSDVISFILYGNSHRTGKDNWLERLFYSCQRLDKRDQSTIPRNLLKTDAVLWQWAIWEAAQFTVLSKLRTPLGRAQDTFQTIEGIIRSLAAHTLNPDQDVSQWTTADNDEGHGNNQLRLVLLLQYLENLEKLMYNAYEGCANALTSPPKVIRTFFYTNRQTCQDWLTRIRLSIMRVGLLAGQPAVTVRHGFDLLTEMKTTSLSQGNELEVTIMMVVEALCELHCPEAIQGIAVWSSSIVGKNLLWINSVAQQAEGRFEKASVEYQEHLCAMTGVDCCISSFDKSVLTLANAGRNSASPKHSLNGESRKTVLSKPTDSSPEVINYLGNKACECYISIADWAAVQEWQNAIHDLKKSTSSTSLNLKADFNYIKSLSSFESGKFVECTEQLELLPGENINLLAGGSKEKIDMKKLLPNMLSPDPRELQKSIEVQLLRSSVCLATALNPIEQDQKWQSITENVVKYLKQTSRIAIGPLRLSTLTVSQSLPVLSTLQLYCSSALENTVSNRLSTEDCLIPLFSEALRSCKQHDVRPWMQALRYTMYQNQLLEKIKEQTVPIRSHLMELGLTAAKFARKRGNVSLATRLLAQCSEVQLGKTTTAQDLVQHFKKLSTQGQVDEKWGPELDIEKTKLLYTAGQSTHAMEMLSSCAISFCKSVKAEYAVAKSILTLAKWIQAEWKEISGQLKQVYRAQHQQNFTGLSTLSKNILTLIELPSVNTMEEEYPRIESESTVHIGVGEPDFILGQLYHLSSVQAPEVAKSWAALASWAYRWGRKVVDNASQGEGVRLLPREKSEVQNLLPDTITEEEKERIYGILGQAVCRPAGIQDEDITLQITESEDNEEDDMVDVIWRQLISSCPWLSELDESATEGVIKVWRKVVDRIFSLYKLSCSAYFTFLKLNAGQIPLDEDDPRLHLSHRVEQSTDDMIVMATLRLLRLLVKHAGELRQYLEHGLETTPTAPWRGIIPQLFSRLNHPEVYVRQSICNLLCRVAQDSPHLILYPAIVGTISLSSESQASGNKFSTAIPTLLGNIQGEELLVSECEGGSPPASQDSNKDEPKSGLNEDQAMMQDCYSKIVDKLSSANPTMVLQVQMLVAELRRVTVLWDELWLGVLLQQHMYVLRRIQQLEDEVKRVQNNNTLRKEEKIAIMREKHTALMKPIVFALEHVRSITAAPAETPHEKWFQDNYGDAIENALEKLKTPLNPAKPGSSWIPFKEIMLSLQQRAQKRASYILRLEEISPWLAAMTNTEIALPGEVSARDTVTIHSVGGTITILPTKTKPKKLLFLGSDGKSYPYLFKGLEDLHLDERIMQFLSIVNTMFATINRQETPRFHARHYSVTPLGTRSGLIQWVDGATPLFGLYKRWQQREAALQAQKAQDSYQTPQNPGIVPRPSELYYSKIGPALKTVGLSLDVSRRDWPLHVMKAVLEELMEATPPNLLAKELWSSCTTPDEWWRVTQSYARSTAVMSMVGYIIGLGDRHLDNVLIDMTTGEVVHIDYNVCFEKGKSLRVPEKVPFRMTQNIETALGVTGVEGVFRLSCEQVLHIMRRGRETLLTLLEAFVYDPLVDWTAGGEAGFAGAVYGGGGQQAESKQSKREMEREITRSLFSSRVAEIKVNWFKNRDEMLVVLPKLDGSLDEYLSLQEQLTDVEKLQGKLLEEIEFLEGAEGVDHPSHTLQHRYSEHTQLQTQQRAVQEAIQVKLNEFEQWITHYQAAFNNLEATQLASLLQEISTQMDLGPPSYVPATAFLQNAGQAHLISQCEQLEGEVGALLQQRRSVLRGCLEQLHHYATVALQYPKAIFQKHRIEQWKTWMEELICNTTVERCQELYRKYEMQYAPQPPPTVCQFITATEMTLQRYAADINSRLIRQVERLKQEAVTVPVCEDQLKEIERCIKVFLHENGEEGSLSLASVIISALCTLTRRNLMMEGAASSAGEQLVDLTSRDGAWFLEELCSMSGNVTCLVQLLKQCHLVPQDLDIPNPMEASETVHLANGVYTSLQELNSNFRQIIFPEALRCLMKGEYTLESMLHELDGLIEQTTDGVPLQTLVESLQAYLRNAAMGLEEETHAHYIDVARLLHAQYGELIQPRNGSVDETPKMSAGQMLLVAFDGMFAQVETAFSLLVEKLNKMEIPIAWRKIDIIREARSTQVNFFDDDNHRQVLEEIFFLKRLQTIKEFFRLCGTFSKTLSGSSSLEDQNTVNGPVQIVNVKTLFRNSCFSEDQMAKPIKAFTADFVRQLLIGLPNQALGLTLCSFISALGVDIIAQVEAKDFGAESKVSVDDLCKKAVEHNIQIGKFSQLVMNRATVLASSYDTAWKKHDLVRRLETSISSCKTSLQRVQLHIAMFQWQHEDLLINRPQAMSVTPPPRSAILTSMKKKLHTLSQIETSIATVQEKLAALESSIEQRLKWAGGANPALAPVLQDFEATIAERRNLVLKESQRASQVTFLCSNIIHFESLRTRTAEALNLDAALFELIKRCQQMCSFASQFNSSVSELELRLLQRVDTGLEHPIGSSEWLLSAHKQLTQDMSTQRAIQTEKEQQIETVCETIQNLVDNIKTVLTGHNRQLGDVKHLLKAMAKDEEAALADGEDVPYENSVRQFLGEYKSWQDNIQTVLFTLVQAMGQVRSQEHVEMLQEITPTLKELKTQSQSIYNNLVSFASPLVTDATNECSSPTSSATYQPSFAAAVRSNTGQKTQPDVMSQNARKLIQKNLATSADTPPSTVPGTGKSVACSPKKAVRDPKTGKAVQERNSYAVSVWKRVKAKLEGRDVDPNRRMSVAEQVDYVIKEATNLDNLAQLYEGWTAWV", "conditions": "2µM, SH-SY5Y cells, Labeling Site ATP, read-out: KiNativ in-cell binding, % Inhibition, SMG1", "excerpt": "as §1"}, "[16]": {"molecular_target": "T10, cellular kinases of SH-SY5Y cells (Homo sapiens, UniProt Q9C0K7)", "T10 construct": "endogenous in cells; host or cells: SH-SY5Y", "conditions": "2µM; SH-SY5Y cells; labeling site Lys1; peptide HTPTGTLVTIKITNLENCNEER", "excerpt": "as §1"}, "[17]": {"molecular_target": "cellular kinases of SH-SY5Y cells (Homo sapiens, UniProt Q9NWZ3)", "sequence (Q9NWZ3 whole entry)": "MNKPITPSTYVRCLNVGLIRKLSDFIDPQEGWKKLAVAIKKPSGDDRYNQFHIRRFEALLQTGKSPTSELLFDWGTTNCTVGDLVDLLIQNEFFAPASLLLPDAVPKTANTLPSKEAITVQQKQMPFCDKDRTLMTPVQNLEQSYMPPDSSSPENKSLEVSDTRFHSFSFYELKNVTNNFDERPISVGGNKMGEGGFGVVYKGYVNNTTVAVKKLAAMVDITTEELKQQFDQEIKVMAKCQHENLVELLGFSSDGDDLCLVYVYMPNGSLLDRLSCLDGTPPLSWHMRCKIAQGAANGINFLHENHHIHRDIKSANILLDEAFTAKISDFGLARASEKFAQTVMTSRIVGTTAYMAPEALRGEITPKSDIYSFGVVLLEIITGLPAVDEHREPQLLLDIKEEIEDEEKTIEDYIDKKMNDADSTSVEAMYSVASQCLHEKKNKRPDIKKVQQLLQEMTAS", "conditions": "2µM, SH-SY5Y cells", "excerpt": "as §1"}, "[18]": {"molecular_target": "T11, cellular kinases of SH-SY5Y cells (Homo sapiens, UniProt Q9NYL2)", "T11 construct": "endogenous in cells; host or cells: SH-SY5Y", "conditions": "2µM; SH-SY5Y cells; Labeling Site Lys1; WISQDKEVAVKK; read-out: KiNativ in-cell binding, % Inhibition, MAP3K20/ZAK", "excerpt": "as §1"}, "[19]": {"molecular_target": "T12, cellular kinases of SH-SY5Y cells (Homo sapiens, UniProt Q9UBF8)", "T12 construct": "endogenous in cells; host or cells: SH-SY5Y", "conditions": "2µM, SH-SY5Y cells, Labeling Site ATP, read-out: KiNativ in-cell binding, % Inhibition, PI4KB", "excerpt": "as §1"}, "[20]": {"molecular_target": "T13, cellular kinases of SH-SY5Y cells (Homo sapiens, UniProt Q9Y2H1)", "T13 construct": "endogenous in cells; host or cells: SH-SY5Y", "conditions": "2µM, SH-SY5Y cells", "excerpt": "as §1"}}, "note": "Read-outs that look alike come from different tables or passages of the source.", "data": [{"smiles": "Cc1cccc(-c2nc(Nc3ccc4ncsc4c3)c3ccccc3n2)n1", "note": "[NK140]", "values": [{"measurement": "inhibition at 2 µM", "setting": "[1]", "value": -13.4, "unit": "%"}, {"measurement": "inhibition at 2 µM", "setting": "[2]; Labeling Site Lys1, ALYATKTLR", "value": 20.9, "unit": "%"}, {"measurement": "inhibition at 2 µM", "setting": "[2]; Labeling Site Lys2, DIKPDNILIDR", "value": 19.3, "unit": "%"}, {"measurement": "inhibition at 2 µM", "setting": "[3]", "value": 20.4, "unit": "%"}, {"measurement": "KiNativ in-cell binding, BRAF, BRAF V600E", "setting": "[4]", "value": -25.8}, {"measurement": "inhibition at 2 µM", "setting": "[5]; Labeling Site Lys1, YDPEGDNTGEQVAVKSLKPESGGNHIADLKK, read-out: KiNativ in-cell binding, % Inhibition, JAK1 domain2", "value": 2.4, "unit": "%"}, {"measurement": "KiNativ in-cell binding, JAK1 domain2", "setting": "[5]; labeling site Activation Loop, peptide IGDFGLTKAIETDKEYYTVK", "value": -56.1}, {"measurement": "inhibition at 2 µM", "setting": "[6]", "value": 21.9, "unit": "%"}, {"measurement": "inhibition at 2 µM", "setting": "[7]", "value": 34.5, "unit": "%"}, {"measurement": "inhibition at 2 µM", "setting": "[8]", "value": 16.2, "unit": "%"}, {"measurement": "inhibition at 2 µM", "setting": "[9]", "value": 10.5, "unit": "%"}, {"measurement": "inhibition at 2 µM", "setting": "[10]", "value": 48.6, "unit": "%"}, {"measurement": "inhibition at 2 µM", "setting": "[11]; Labeling Site Lys1, NVNTGELAAIKVIK", "value": 29.8, "unit": "%"}, {"measurement": "inhibition at 2 µM", "setting": "[11]; Labeling Site Lys2, DIKGANILLTDNGHVK", "value": 20.5, "unit": "%"}, {"measurement": "KiNativ in-cell binding, MLKL", "setting": "[12]", "value": -57.5}, {"measurement": "KiNativ in-cell binding, NEK7", "setting": "[13]", "value": -3.8}, {"measurement": "inhibition at 2 µM", "setting": "[14]", "value": -13, "unit": "%"}, {"measurement": "inhibition at 2 µM", "setting": "[15]; DTVTIHSVGGTITILPTKTKPK", "value": 11.2, "unit": "%"}, {"measurement": "inhibition at 2 µM", "setting": "[15]; SYPYLFKGLEDLHLDER", "value": 43.7, "unit": "%"}, {"measurement": "KiNativ in-cell binding, STRADB", "setting": "[16]", "value": 0.5}, {"measurement": "inhibition at 2 µM", "setting": "[17]; Labeling Site Lys1, GYVNNTTVAVKK, read-out: KiNativ in-cell binding, % Inhibition, IRAK4", "value": -5.5, "unit": "%"}, {"measurement": "KiNativ in-cell binding, IRAK4", "setting": "[17]; labeling site Lys2, peptide DIKSANILLDEAFTAK", "value": -14.3}, {"measurement": "inhibition at 2 µM", "setting": "[18]", "value": -2, "unit": "%"}, {"measurement": "inhibition at 2 µM", "setting": "[19]; LLSVIVKCGDDLRQELLAFQVLK", "value": 29.7, "unit": "%"}, {"measurement": "inhibition at 2 µM", "setting": "[19]; VPHTQAVVLNSKDK", "value": 32.3, "unit": "%"}, {"measurement": "inhibition at 2 µM", "setting": "[20]; Labeling Site Lys1, DTGHIYAMKILR, read-out: KiNativ in-cell binding, % Inhibition, STK38L/NDR2", "value": -47.2, "unit": "%"}, {"measurement": "inhibition at 2 µM", "setting": "[20]; Labeling Site Lys2, DIKPDNLLLDAK, read-out: KiNativ in-cell binding, % Inhibition, NDR2", "value": -39.9, "unit": "%"}]}]}
